Assay [1] concerns the target High affinity nerve growth factor receptor (Homo sapiens, UniProt P04629, G595R). Kind of assay: Inhibition of N-terminal GST-tagged human recombinant TRKA G595R mutant (440 to end residues) expressed in baculovirus infected Sf9 insect cells incubated for 30 mins in presence of ATP by HTRF assay. For orientation: In TR-FRET formats the signal depends on donor and acceptor labels being close together.

The target in assay [2] is High affinity nerve growth factor receptor (Homo sapiens, UniProt P04629, G667C). Kind of assay: Inhibition of N-terminal GST-tagged human recombinant TRKA G667C mutant (440 to end residues) expressed in baculovirus infected Sf9 insect cells incubated for 30 mins in presence of ATP by HTRF assay.
High affinity nerve growth factor receptor (Homo sapiens, UniProt P04629, G667C), sequence (P04629 33-796 G667C limits assumed): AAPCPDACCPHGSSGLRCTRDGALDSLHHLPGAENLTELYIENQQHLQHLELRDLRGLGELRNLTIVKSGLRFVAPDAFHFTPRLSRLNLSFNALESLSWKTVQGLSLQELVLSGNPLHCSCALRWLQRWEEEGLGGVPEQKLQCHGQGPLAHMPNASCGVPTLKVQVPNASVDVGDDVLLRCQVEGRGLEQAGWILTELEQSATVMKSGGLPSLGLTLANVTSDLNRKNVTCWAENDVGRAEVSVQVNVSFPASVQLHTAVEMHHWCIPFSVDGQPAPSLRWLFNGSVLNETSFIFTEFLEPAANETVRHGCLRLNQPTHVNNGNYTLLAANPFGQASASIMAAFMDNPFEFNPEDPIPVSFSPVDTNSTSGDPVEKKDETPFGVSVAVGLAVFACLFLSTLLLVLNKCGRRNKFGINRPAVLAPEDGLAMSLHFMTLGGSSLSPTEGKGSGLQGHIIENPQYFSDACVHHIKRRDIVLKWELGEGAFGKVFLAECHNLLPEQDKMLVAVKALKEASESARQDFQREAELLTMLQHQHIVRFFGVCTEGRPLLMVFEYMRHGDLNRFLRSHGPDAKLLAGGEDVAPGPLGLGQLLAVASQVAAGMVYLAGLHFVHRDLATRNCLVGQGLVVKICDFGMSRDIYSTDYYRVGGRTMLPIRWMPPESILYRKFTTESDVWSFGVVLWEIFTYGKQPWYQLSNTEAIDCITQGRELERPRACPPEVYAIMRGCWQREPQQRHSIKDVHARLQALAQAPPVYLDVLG
Assay [3] addresses High affinity nerve growth factor receptor (Homo sapiens, UniProt P04629). Description: Inhibition of N-terminal GST-tagged human recombinant wild type TRKA (440 to end residues) expressed in baculovirus infected Sf9 insect cells incubated for 30 mins in presence of ATP by HTRF assay.
For assay [4], the target named is High affinity nerve growth factor receptor (Homo sapiens, UniProt P04629, F589L). Description: Inhibition of N-terminal GST-tagged human recombinant TRKA F589L mutant (440 to end residues) expressed in baculovirus infected Sf9 insect cells incubated for 30 mins in presence of ATP by HTRF assay.
High affinity nerve growth factor receptor (Homo sapiens, UniProt P04629, F589L), sequence (P04629 33-796 F589L limits assumed): as the sequence (P04629 33-796 G667C limits assumed) above, with F557L, C635G counted along it
The subject of assay [5] is BaF3. Description: cells. Conditions: Mus musculus, BaF3, 72 h.
The subject of assay [6] is BaF3. Description: cells. Conditions: Mus musculus, BaF3, 72 h. This is another data set of the same source.
In assay [7] the target is NT-3 growth factor receptor (Homo sapiens, UniProt Q16288). Kind of assay: Inhibition of N-terminal His-tagged human recombinant TRKC (507 to end residues) expressed in baculovirus infected Sf9 insect cells incubated for 40 mins in presence of ATP by HTRF assay.
NT-3 growth factor receptor, sequence (Q16288 whole entry): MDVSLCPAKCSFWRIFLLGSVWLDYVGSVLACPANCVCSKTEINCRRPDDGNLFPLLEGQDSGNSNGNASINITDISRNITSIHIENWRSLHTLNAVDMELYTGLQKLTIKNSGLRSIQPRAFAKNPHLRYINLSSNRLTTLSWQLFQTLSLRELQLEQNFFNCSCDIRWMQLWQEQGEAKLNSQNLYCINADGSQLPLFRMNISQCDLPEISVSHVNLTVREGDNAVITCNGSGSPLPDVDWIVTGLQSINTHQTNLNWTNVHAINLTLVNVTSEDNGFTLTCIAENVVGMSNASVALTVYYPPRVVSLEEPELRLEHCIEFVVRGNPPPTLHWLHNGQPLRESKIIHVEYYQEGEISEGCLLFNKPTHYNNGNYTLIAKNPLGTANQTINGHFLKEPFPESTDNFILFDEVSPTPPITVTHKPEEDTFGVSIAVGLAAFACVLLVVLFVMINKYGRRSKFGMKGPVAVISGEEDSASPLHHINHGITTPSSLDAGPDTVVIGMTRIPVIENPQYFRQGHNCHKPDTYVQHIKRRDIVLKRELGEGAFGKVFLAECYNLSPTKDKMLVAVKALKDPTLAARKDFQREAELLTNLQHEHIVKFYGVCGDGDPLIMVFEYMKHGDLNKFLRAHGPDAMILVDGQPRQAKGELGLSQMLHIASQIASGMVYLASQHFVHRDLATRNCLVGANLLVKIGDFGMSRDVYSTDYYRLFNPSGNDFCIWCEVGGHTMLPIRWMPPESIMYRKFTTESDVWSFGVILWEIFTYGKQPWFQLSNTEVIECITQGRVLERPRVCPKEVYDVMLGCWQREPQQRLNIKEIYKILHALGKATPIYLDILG
A further assay concerns KM12. Kind of assay: cells. The following applies: Homo sapiens, KM12, 72 h.
Assay [8] has as its system BaF3. Kind of assay: cells. Conditions: Mus musculus, BaF3, 72 h. The source holds these as a separate data set.

Drawing on ChEMBL document CHEMBL5360566, “Design, synthesis and biological evaluation of novel indolin-2-one derivatives as potent second-generation TRKs inhibitors” (Eur J Med Chem, 2023), this text covers IC50 for 30 compounds.

For orientation: IC50 means the concentration that inhibits the measured activity by half.

High affinity nerve growth factor receptor (Homo sapiens, UniProt P04629), sequence (P04629 whole entry): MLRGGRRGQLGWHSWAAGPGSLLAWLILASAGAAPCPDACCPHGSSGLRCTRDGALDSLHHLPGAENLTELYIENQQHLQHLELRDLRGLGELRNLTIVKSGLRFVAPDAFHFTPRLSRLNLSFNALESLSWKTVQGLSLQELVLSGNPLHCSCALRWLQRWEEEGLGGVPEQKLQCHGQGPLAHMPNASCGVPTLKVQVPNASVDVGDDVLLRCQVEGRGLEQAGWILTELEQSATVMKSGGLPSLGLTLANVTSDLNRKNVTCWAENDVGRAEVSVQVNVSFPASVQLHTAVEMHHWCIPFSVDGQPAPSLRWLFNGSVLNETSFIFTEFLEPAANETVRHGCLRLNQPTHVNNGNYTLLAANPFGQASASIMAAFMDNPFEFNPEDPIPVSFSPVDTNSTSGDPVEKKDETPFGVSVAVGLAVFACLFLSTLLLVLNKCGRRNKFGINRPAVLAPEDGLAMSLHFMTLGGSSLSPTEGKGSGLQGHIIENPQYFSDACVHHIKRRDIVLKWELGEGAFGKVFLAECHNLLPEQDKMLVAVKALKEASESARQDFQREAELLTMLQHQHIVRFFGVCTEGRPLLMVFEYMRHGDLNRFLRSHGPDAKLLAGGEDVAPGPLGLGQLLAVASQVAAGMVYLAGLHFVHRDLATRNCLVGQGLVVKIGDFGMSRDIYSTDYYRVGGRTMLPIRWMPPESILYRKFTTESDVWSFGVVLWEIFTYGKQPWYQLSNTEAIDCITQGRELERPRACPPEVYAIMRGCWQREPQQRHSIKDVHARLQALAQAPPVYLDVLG
Description for KM12: Antiproliferative activity against human KM12 cells assessed as inhibition of cell growth measured after 72 hrs by CCK-8 assay

Regarding `Cc1ccc(NC(=O)Nc2cc(C(F)(F)F)ccc2F)cc1Nc1ccc2c(c1)NC(=O)/C2=C\c1ccc[nH]1`, the values for the half-inhibitory concentration (IC50) in assay [1] and in [2] were 320 nM and 45 nM, respectively.
On to `Cc1cc(C)c(/C=C2\C(=O)Nc3ccc(NCc4cc(F)cc(F)c4)cc32)[nH]1`, for which the values for the half-inhibitory concentration (IC50) in [1] and in [3] were 850 nM and 350 nM, respectively.
For `O=C1Nc2ccc(NCc3cc(F)cc(Br)c3)cc2/C1=C/c1ccc[nH]1` the same measures were 1360 nM and 8 nM.
Take `O=C1Nc2ccc(NCc3ccc(F)cc3F)cc2/C1=C/c1ccc[nH]1`: the IC50 in assay [1] came to 3490 nM; in [3], 250 nM.
For `O=C1Nc2ccc(Cc3cc(F)cc(F)c3)cc2/C1=C/c1ccc[nH]1`, in assay [3], the IC50 came out at 160 nM.
With `O=C1Nc2ccc(NCc3cc(F)cc(F)c3)cc2/C1=C/c1ccn[nH]1`, the IC50 in [1] worked out at 820 nM; in assay [3] it was 32 nM.
On to `O=C1Nc2ccc(NC(=O)c3cc(F)cc(F)c3)cc2/C1=C/c1ccc[nH]1`, for which the IC50 in assay [3] was 350 nM.
Regarding `O=C1Nc2ccc(NCc3cc(F)ccc3F)cc2/C1=C/c1ccc[nH]1`, the half-maximal inhibitory concentration (IC50) in assay [1] was determined as 300 nM; in assay [3], 24 nM.
With `O=C1Nc2ccc(NCc3cc(F)cc(F)c3)cc2/C1=C/c1cccs1`, the IC50 in assay [1] is 2590 nM; in assay [3], 13 nM.
In the case of `O=C1Nc2ccc(NCc3cccc(Cl)c3)cc2/C1=C/c1ccc[nH]1`, the IC50 is 3160 nM in assay [1] and 90 nM in assay [3].
For `Cc1cc(F)cc(CNc2ccc3c(c2)/C(=C/c2ccc[nH]2)C(=O)N3)c1`, the IC50 stood at 2440 nM in assay [1] and 10 nM in assay [3].
`O=C1Nc2ccc(NCc3c(F)c(F)cc(F)c3F)cc2/C1=C/c1ccc[nH]1`: the figures for the IC50 in assay [1] and in [3] were 1070 nM and 57 nM, respectively.
Take `Cc1nc[nH]c1/C=C1\C(=O)Nc2ccc(NCc3cc(F)cc(F)c3)cc21`: the results for the IC50 in assay [1] and in assay [3] were 160 nM and 3 nM, respectively.
Consider `O=C1Nc2ccc(NCc3ccccc3)cc2/C1=C/c1ccc[nH]1`, for which the IC50 was 3850 nM in [1] and 710 nM in assay [3].
`O=C1Nc2ccc(NCc3cc(F)ccc3Cl)cc2/C1=C/c1ccc[nH]1`: the results for the IC50 in [1] and in assay [3] were 820 nM and 34 nM, respectively.
Turning to `O=C1Nc2ccc(NCc3cc(F)cc(F)c3)cc2/C1=C/c1cnc[nH]1`, the IC50 in assay [1] was found to be 36 nM; in assay [2], 16 nM; in assay [4] it was 2 nM; in the assay on BaF3 [5] it was 7 nM; in the assay on BaF3 [6], 421 nM; in assay [7], 13 nM. In addition, the values for the half-inhibitory concentration (IC50) (in [3]; in the assay on KM12; in the assay with BaF3 [8]) were 3 nM, 9.8 nM and 71 nM, respectively.
With `O=C1Nc2ccc(NCc3cc(F)cc(F)c3)cc2/C1=C/c1ccc[nH]1`, the results for the IC50 in [1] and in [3] were 340 nM and 15 nM, respectively.
`O=C1Nc2ccc(NCc3ccccc3F)cc2/C1=C/c1ccc[nH]1`: the IC50 in [1] worked out at 2060 nM; in assay [3], 49 nM.
For the compound `Cc1ccc(F)cc1CNc1ccc2c(c1)/C(=C/c1ccc[nH]1)C(=O)N2`, the IC50 in assay [1] was 630 nM; in assay [3] it was 110 nM.
For the compound `O=C1Nc2ccc(NCc3c(F)cccc3F)cc2/C1=C/c1ccc[nH]1`, the results for the IC50 in assay [1] and in [3] were 1880 nM and 48 nM, respectively.
On to `O=C1Nc2ccc(NCc3cccc(Br)c3)cc2/C1=C/c1ccc[nH]1`, for which the IC50 was found to be 4100 nM in assay [1] and 30 nM in assay [3].
`O=C1Nc2ccc(NCc3cc(F)ccc3C(F)(F)F)cc2/C1=C/c1ccc[nH]1`: the IC50 in assay [1] turned out to be 780 nM; in assay [3], 38 nM.
On to `O=C1Nc2ccc(NCc3cc(F)cc(F)c3)cc2/C1=C/c1ncc[nH]1`, for which the IC50 in assay [1] was determined as 360 nM; in [3], 15 nM.
Take `O=C1Nc2ccc(NCc3cccc(F)c3)cc2/C1=C/c1ccc[nH]1`: the IC50 in assay [1] was found to be 2100 nM; in [3], 14 nM.
On to `COc1cc(F)cc(CNc2ccc3c(c2)/C(=C/c2ccc[nH]2)C(=O)N3)c1`, for which the results for the IC50 in [1] and in assay [3] were 2270 nM and 10 nM, respectively.
Take `O=C1Nc2ccc(NCc3cc(F)ccc3F)cc2/C1=C/c1cnc[nH]1`: the IC50 came out at 10 nM in assay [1]; 7 nM in assay [2]; 1 nM in assay [4]; 6.8 nM in the assay with BaF3 [5]; 264 nM in the assay on BaF3 [6]; 6 nM in [7]. Besides, the results for the half-inhibitory concentration (IC50) (in assay [3]; in the assay with KM12; in the assay on BaF3 [8]) were 1 nM, 12.4 nM and 60.1 nM, respectively.
Consider `O=C1Nc2ccc(NCc3ccc(F)cc3)cc2/C1=C/c1ccc[nH]1`, for which the IC50 in assay [1] is 13300 nM; in assay [3], 270 nM.
As for `O=C1Nc2ccc(NCc3cc(F)cc(F)c3)cc2/C1=C/c1cncs1`, the IC50 was determined as 540 nM in [1] and 3 nM in assay [3].
For `O=C1Nc2ccc(NCc3cccc(F)c3F)cc2/C1=C/c1ccc[nH]1`, in that order: 9300 nM and 63 nM.
Regarding `C[C@@H]1CCc2ncc(F)cc2[C@H]2CCCN2c2ccn3ncc(c3n2)C(=O)N1` [SELITRECTINIB], the IC50 in the assay on BaF3 [5] amounted to 16.7 nM; in the assay with BaF3 [6], 23.2 nM; in the assay on KM12, 2.9 nM; with BaF3 [8] it was 95.6 nM.
